In ChEMBL document CHEMBL1145498, “A systematic interaction map of validated kinase inhibitors with Ser/Thr kinases” (Proc Natl Acad Sci U S A, 2007) one finds ΔTm data, which are given here for seven molecules.

SMILES strings stand for the structures.

Test [1] concerns the target Serine/threonine-protein kinase VRK2 (Homo sapiens) (UniProt Q86Y07).
Test [2] concerns the target Calcium/calmodulin-dependent protein kinase type II subunit delta (Homo sapiens) (UniProt Q13557).
Test [3] has as its target Calcium/calmodulin-dependent protein kinase type II subunit alpha (Homo sapiens) (UniProt Q9UQM7).
In test [4] the target is Serine/threonine-protein kinase Nek6 (Homo sapiens) (UniProt Q9HC98).
Serine/threonine-protein kinase Nek6 (Homo sapiens), sequence (Q9HC98 whole entry): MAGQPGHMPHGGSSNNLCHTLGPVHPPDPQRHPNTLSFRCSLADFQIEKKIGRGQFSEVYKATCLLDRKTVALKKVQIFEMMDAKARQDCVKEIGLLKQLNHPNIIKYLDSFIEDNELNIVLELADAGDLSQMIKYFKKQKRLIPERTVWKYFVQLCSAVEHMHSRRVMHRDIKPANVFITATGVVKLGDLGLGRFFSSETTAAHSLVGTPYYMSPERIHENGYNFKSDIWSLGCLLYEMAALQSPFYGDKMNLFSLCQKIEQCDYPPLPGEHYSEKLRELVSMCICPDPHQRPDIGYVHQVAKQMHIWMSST
Test [5] concerns the target Cyclin-dependent kinase-like 1 (Homo sapiens) (UniProt Q00532).
For test [6], the target named is Dual specificity protein kinase CLK3 (Homo sapiens) (UniProt P49761).
Dual specificity protein kinase CLK3 (Homo sapiens), sequence (P49761 whole entry, looked up): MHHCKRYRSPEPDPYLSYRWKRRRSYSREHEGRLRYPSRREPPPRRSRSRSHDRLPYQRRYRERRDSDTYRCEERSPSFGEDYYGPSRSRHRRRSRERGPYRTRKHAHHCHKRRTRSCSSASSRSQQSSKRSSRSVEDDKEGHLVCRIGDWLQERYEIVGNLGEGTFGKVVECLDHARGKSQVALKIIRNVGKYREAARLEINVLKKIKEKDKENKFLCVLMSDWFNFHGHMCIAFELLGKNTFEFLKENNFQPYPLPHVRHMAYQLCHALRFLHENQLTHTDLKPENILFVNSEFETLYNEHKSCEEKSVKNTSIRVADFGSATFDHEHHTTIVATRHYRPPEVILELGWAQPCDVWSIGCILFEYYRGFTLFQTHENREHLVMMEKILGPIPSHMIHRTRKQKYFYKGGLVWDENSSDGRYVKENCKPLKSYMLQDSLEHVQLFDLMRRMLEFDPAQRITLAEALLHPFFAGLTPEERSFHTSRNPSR
Test [7] addresses Serine/threonine-protein kinase 16 (Homo sapiens) (UniProt O75716).
Test [8] addresses T1, Serine/threonine-protein kinase PLK4 (Homo sapiens) (UniProt O00444).
T1 sequence (whole entry): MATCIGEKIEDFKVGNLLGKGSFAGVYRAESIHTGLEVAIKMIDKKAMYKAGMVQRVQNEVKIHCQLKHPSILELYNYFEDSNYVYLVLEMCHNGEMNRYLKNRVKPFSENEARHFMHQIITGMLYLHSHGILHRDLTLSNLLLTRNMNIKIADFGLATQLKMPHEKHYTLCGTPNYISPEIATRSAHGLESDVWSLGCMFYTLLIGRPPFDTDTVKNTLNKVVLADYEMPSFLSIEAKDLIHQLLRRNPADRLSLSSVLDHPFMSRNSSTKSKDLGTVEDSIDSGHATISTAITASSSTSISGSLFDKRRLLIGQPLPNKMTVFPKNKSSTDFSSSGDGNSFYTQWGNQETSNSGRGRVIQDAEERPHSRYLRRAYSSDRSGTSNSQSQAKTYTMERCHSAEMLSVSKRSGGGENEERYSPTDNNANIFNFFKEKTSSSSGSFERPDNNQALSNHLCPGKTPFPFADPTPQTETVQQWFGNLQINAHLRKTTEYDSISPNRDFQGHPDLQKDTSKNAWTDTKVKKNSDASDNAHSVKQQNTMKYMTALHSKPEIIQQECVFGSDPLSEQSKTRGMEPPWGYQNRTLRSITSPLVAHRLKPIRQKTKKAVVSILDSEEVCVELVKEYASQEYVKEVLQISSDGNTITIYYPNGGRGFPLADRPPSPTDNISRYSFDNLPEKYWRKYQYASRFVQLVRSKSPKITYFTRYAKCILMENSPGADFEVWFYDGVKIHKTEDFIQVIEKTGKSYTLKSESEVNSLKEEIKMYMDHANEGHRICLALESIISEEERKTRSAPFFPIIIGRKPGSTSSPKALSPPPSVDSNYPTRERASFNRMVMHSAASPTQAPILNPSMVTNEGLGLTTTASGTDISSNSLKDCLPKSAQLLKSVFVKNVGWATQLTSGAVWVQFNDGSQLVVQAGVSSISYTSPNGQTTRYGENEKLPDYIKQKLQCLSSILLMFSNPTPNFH

The target in test [9] is Casein kinase I isoform gamma-3 (Homo sapiens) (UniProt Q9Y6M4).
Test [10] has as its target Serine/threonine-protein kinase 25 (Homo sapiens) (UniProt O00506).
The target in test [11] is Dual specificity protein kinase CLK1 (Homo sapiens) (UniProt P49759).
The target in test [12] is Serine/threonine-protein kinase OSR1 (Homo sapiens) (UniProt O95747).
Serine/threonine-protein kinase OSR1 (Homo sapiens), sequence (O95747 2-527 limits assumed): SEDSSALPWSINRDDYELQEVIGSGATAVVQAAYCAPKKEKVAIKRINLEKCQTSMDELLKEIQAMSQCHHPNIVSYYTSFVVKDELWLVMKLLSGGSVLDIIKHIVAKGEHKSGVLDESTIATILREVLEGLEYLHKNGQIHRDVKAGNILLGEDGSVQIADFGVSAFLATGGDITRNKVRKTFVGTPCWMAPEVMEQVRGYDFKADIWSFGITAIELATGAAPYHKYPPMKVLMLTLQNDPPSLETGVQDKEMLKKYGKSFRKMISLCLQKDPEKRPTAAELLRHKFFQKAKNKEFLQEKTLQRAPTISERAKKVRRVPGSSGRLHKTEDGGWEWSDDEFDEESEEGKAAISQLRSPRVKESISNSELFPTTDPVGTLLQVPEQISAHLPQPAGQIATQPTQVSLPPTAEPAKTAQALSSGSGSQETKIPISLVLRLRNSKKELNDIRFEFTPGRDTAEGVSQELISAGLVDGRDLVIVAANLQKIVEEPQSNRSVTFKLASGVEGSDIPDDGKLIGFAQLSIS
In test [13] the target is Calcium/calmodulin-dependent protein kinase kinase 2 (Homo sapiens, UniProt Q96RR4).
Calcium/calmodulin-dependent protein kinase kinase 2, sequence (Q96RR4 2-588 limits assumed): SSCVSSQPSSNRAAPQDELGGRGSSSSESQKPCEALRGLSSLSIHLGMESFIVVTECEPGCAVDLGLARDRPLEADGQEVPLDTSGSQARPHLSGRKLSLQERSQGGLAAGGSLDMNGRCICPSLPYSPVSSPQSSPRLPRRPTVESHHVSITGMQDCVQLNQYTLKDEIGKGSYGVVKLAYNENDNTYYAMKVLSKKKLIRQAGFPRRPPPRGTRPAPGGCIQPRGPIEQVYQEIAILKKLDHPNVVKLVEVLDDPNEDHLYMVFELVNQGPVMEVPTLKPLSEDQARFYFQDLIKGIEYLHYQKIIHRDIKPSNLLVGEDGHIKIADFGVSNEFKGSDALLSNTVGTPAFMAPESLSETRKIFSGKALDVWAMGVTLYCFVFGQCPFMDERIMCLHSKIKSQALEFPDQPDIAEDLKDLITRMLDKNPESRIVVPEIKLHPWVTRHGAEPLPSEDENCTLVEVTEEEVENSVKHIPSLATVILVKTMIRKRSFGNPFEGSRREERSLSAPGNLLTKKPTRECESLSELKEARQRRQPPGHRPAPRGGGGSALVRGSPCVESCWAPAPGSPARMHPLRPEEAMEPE
In test [14] the target is T2, Serine/threonine-protein kinase 17A (Homo sapiens) (UniProt Q9UEE5).
T2 sequence (whole entry): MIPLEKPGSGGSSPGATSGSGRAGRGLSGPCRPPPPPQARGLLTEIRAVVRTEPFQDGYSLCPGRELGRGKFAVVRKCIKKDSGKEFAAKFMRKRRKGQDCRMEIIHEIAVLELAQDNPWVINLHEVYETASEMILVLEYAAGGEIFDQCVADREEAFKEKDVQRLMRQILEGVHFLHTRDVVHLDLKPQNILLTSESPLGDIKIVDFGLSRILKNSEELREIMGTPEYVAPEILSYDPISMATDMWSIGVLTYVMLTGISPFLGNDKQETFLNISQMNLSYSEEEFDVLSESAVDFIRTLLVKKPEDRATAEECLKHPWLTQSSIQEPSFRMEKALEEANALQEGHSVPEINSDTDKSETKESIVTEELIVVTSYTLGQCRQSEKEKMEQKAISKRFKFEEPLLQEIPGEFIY

Test [15] has as its target Dual specificity protein kinase CLK2 (Homo sapiens) (UniProt P49760).
Test [16] deals with T3, 3-phosphoinositide-dependent protein kinase 1 (Homo sapiens) (UniProt O15530).
T3 sequence (whole entry): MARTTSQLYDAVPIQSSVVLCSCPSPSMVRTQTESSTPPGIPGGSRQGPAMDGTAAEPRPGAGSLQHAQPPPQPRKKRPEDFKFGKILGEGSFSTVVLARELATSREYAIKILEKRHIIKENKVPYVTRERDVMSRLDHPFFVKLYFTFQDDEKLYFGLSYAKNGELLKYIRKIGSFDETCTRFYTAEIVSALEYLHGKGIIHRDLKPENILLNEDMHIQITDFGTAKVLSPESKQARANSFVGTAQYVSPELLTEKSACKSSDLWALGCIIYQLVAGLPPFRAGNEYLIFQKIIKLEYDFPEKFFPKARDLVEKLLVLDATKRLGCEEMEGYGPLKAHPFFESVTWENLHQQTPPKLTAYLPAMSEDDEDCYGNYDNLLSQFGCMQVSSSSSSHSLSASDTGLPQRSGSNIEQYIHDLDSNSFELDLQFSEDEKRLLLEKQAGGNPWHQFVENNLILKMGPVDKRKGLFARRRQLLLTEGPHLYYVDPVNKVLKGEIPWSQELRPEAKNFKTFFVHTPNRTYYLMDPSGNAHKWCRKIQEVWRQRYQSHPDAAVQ

In test [17] the target is Casein kinase I isoform gamma-1 (Homo sapiens) (UniProt Q9HCP0).
Casein kinase I isoform gamma-1 (Homo sapiens), sequence (Q9HCP0 whole entry, looked up, canonical isoform): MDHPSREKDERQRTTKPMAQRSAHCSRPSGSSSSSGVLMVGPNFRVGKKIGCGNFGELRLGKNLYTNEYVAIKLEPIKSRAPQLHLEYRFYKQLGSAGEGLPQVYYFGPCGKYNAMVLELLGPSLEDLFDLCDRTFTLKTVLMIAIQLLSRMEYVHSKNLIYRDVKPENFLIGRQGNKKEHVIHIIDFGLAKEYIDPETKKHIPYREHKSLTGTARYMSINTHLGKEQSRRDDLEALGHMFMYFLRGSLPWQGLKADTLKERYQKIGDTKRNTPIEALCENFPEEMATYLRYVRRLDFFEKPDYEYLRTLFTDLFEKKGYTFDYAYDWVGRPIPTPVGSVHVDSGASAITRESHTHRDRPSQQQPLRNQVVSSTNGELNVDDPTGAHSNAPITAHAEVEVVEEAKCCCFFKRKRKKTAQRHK

Calcium/calmodulin-dependent protein kinase type II subunit alpha (Homo sapiens), sequence (Q9UQM7 whole entry): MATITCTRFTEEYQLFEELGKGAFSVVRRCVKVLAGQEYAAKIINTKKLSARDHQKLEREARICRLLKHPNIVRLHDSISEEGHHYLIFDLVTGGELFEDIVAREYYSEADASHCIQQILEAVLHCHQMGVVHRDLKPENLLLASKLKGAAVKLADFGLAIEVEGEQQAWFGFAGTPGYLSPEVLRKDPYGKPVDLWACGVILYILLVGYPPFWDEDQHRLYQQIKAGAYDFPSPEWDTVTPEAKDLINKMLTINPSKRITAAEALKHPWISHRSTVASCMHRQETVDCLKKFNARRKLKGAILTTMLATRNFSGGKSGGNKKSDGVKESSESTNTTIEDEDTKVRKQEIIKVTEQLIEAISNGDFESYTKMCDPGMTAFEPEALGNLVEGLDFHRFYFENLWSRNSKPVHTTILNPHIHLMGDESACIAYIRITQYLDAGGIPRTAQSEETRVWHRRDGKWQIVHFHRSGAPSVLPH
Cyclin-dependent kinase-like 1 (Homo sapiens), sequence (Q00532 whole entry): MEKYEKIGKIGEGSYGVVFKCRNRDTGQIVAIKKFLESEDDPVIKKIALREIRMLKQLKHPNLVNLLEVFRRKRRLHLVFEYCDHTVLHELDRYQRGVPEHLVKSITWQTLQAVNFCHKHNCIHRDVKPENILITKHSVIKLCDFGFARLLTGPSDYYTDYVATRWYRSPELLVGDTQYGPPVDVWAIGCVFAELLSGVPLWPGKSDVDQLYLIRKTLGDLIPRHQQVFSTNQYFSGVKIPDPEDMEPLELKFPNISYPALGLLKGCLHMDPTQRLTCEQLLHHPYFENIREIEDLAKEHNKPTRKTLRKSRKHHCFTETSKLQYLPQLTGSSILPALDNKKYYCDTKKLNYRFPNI
Dual specificity protein kinase CLK2 (Homo sapiens), sequence (P49760 whole entry, looked up): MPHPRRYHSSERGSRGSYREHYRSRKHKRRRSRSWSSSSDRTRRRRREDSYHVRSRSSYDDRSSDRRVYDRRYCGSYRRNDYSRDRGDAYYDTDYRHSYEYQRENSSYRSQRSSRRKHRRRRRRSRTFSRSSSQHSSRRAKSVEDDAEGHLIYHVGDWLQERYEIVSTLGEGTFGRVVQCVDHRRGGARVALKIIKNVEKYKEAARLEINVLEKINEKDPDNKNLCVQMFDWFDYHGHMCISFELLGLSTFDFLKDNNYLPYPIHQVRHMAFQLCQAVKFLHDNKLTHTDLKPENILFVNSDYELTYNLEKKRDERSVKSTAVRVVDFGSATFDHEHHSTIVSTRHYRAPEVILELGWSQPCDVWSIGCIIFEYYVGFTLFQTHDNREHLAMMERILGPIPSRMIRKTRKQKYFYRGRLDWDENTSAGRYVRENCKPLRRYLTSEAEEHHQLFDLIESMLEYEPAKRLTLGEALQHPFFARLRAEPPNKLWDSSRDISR
Serine/threonine-protein kinase 16 (Homo sapiens), sequence (O75716 whole entry): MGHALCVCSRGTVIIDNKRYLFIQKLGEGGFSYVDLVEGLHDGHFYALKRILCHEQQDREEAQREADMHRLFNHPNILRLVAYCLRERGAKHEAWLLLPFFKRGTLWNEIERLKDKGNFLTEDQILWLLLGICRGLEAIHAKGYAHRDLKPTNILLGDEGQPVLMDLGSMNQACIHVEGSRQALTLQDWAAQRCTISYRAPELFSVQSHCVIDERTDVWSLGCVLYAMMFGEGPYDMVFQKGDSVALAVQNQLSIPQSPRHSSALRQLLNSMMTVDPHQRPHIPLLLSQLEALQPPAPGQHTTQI
Serine/threonine-protein kinase VRK2 (Homo sapiens), sequence (Q86Y07 whole entry): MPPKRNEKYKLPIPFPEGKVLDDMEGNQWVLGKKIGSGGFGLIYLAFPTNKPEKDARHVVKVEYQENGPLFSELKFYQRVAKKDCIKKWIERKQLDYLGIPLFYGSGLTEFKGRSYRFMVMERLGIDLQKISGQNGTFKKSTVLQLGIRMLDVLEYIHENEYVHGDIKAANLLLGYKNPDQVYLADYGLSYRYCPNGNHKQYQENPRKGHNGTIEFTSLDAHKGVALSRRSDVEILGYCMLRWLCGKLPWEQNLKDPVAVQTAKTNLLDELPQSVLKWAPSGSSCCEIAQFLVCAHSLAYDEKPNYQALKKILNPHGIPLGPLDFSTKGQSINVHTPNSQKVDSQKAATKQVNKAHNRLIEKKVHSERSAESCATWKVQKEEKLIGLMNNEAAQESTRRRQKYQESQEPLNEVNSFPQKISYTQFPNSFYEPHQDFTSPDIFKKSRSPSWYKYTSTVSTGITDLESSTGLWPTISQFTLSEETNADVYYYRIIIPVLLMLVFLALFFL
Serine/threonine-protein kinase 25 (Homo sapiens), sequence (O00506 whole entry, looked up): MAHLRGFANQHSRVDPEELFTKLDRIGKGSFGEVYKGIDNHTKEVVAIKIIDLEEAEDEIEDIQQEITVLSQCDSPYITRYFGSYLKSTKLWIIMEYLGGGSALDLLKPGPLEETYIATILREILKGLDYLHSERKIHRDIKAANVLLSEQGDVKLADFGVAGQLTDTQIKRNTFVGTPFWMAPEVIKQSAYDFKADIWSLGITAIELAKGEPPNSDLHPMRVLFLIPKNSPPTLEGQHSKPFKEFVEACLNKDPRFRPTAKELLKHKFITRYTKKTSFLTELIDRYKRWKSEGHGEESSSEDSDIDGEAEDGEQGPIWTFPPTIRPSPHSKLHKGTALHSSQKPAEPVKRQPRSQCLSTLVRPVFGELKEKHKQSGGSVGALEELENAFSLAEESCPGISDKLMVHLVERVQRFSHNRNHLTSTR

With `CC(C)(C)n1nc(-c2cccc3ccccc23)c2c(N)ncnc21`, the ΔTm (commonly the shift of the melting midpoint relative to a reference) in test [1] is 2.8 °C; in test [2], -0.1 °C; in [3], 0.3 °C; in [4] it was 0.1 °C; in [5] it was -0.5 °C; in test [6], 0.2 °C. Moreover, the ΔTm turned out to be 0.7 °C in [7]; 1.1 °C in test [8]; 0.5 °C in test [9]; 1.3 °C in [10]; 1.1 °C in [11]; 1.1 °C in test [12]. Besides, the ΔTm in [13] is 0.7 °C; in [14], 2 °C; in test [15], 0.8 °C; in test [16] it was -0.4 °C; in test [17], 0.1 °C.
Turning to `N=C(N)NCCNS(=O)(=O)c1cccc2cnccc12`, the ΔTm in test [1] worked out at 0.1 °C; in test [2], 0.1 °C; in test [3] it was 0.3 °C; in [4] it was 0.2 °C; in test [5], 0 °C; in [6] it was 0 °C. Also, the ΔTm in test [7] is 0.3 °C; in test [8], 0.1 °C; in [9] it was 0.3 °C; in [10], -0.4 °C; in [11], 0.7 °C; in [12] it was 1.1 °C. The thermal shift (ΔTm) in test [13] is -0.1 °C; in test [14] it was 0.6 °C; in [15] it was 0.1 °C; in test [16] it was -0.3 °C; in test [17], -0.3 °C.
As to `CN(C)S(=O)(=O)c1ccc2c(c1)/C(=C/c1cc3c([nH]1)CCCC3)C(=O)N2`, the ΔTm was found to be 0.4 °C in [1]; 3.2 °C in [2]; 3 °C in test [3]; 0.8 °C in test [4]; 0 °C in test [5]; 4.1 °C in [6]. Also, the ΔTm in test [7] was 0.3 °C; in [8], 12.8 °C; in test [9], 0.6 °C; in test [10], 5.3 °C; in test [11], 4.3 °C; in test [12], 2.2 °C. The ΔTm in [13] was 7.6 °C; in test [14], 3.3 °C; in test [15], 4.8 °C; in [16], 0.4 °C; in test [17] it was 0.9 °C.
`Cc1ccc(NC(=O)c2cccc(N(C)C)c2)cc1NC(=O)c1ccc(O)cc1`: the ΔTm in test [1] is 0.2 °C; in test [2], 0 °C; in test [3], 0.1 °C; in test [4], 0.3 °C; in test [5] it was -0.4 °C; in test [6] it was 0 °C. For the same molecule, the ΔTm in [7] was 0.5 °C; in test [8], 0.8 °C; in test [9], 0.3 °C; in test [10], -0.3 °C; in test [11], -0.2 °C; in test [12], 2 °C. For the same molecule, the ΔTm in test [13] is 0.4 °C; in test [14] it was 0.6 °C; in test [15], 0.2 °C; in test [16], -0.4 °C; in test [17], -0.1 °C.
On to `O=c1c2ccccc2[nH]c(=S)n1CCN1CCC(=C(c2ccc(F)cc2)c2ccc(F)cc2)CC1` [DIACYLGLYCEROL KINASE INHIBITOR II], for which the ΔTm was -0.2 °C in [1]; -5.4 °C in test [2]; -0.6 °C in test [3]; 0.1 °C in test [4]; -0.5 °C in test [5]; 0.2 °C in test [6]. For the same molecule, the ΔTm was 0.3 °C in test [7]; 0.8 °C in test [8]; -1.3 °C in test [9]; 1.5 °C in test [10]; 0.3 °C in test [11]; 2.4 °C in test [12]. Also, the ΔTm was 1.8 °C in test [13]; 0.5 °C in test [14]; 0.3 °C in test [15]; 0.6 °C in test [16]; -0.2 °C in [17].
As to `O=c1c(O)c(-c2ccc(O)c(O)c2)oc2cc(O)cc(O)c12` [QUERCETIN], the ΔTm was found to be 2.7 °C in test [1]; 2.7 °C in test [2]; 4.1 °C in test [3]; 1.6 °C in test [4]; 1.6 °C in test [5]; 5.4 °C in test [6]. The ΔTm in test [7] is 4.8 °C; in [8] it was 7.4 °C; in test [9], 2.9 °C; in test [10], 5.3 °C; in test [11], 7.7 °C; in test [12], 7.4 °C. The ΔTm in test [13] stood at 5.5 °C; in [14], 9.3 °C; in test [15] it was 4.9 °C; in test [16], 1.1 °C; in [17], 3.2 °C.
For `COc1ccc2c(c1)/C(=C/c1cnc[nH]1)C(=O)N2` [SU-9516], the ΔTm in [1] is 0.7 °C; in [2] it was -0.5 °C; in [3], 1 °C; in test [4], 0.1 °C; in test [5] it was 5.8 °C; in test [6] it was 1.3 °C. In addition, the ΔTm was 4.4 °C in test [7]; 4.9 °C in test [8]; 0.5 °C in test [9]; 6.4 °C in test [10]; 3.4 °C in test [11]; 1.3 °C in test [12]. Moreover, the ΔTm in test [13] came out at 2.8 °C; in [14], 9.8 °C; in test [15], 3.2 °C; in [16] it was 0.2 °C; in test [17] it was 1 °C.
